Assay results taken from patent US20250388605A1, “HETEROBIFUNCTIONAL COMPOUNDS AND METHODS OF TREATING DISEASE” (Halda Therapeutics OpCo, Inc., priority 2022, published 2025).

Key:
[1] = system: T-Rex 293 cell line SC3 cells lacking increased expression of androgen receptor protein; test: Cellular growth inhibition, T-Rex 293 SC3 cells without doxycycline (no increased androgen receptor expression), CellTiter-Glo; type: cell-based; conditions: T-Rex 293 SC3 cells not exposed to doxycycline (no increased androgen receptor expression), 72 hours
Procedure, shortened: (§1)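 Growth inhibition is measured in an inducible AR-expressing T-Rex 293 clone, SC3, cultured with or without 10 ng/mL doxycycline in hormone-depleted medium. Test compounds are applied for 72 hours. GI50 values derive from CellTiter-Glo 2.0 signal fitted by four-parameter regression.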

[2] = system: T-Rex 293 cell line SC3 cells having increased expression of androgen receptor protein due to exposure to doxycycline; test: Cellular growth inhibition, T-Rex 293 SC3 cells with doxycycline (increased androgen receptor expression), CellTiter-Glo; type: cell-based; conditions: T-Rex 293 SC3 cells with 10 ng/mL doxycycline (increased androgen receptor expression), 72 hours, CellTiter-Glo 2.0
Procedure, shortened: as §1

[3] = system: VCaP cells; test: Cellular growth inhibition assay for VCaP cells, CellTiter-Glo; type: cell-based, human; conditions: 72 hours
Procedure, shortened: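 GI50 values come from four-parameter curve fits of luminescence data normalized to a zero baseline. Compound, in medium with 0.5% DMSO, was added one day after plating and left for 72 h before CellTiter-Glo 2.0 addition.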

[4] = system: T47D cells; test: Cellular Growth Inhibition Assay for T47D Cells (CellTiter-Glo); type: cell-based, human; conditions: 72 hours
Procedure, shortened: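 GI50 values derive from four-parameter regression of CellTiter-Glo 2.0 luminescence, using zero luminescence as baseline. Human breast cancer T47D cells (3000/well; DMEM, 10% FBS, 0.2 units/mL insulin) were exposed for 72 h to compound dilutions at 0.5% DMSO, with dosing starting 24 h after seeding.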

SMILES | GI50 ([3]; Homo sapiens) | GI50 ([4]; Homo sapiens) | GI50 [3] | GI50 [4] | GI50 [1] | GI50 [2]
Cn1cc(-c2cc(C(C)(C)O)ccc2OCC(C)(C)CN2CC(OC3CCN(c4ncc(C(=O)NC5C(C)(C)C(Oc6ccc(C#N)c(Cl)c6)C5(C)C)cn4)CC3)C2)c2cc[nH]c2c1=O (stereo not shown) [Compound I-282, N-[3-(3-chloro-4-cyano-phenoxy)-2,2,4,4-tetramethyl-cyclobutyl]-2-[4-[1-[3-[4-(1-hydroxy-1-methyl-ethyl)-2-(6-methyl-7-oxo-1H-pyrrolo[2,3-c]pyridin-4-yl)phenoxy]-2,2-dimethyl-propyl]azetidin-3-yl]oxy-1-piperidyl]pyrimidine-5-carboxamide] | < 0.5 µM | 0.5 to 1.5 µM | – | – | 0.5 to 1.5 µM | < 0.5 µM
CCS(=O)(=O)c1ccc(Oc2ccc(OC3CC4(CCN(c5ncc(C(=O)N[C@H]6C(C)(C)[C@H](Oc7ccc(C#N)c(Cl)c7)C6(C)C)cn5)CC4)C3)c(F)c2)c(-c2cn(C)c(=O)c3[nH]ccc23)c1 [Compound I-283] | < 0.5 µM | < 0.5 µM | – | – | > 3 µM | < 0.5 µM
CCS(=O)(=O)c1ccc(Oc2ccc(CCCC3CCN(c4ncc(C(=O)N[C@H]5C(C)(C)[C@H](Oc6ccc(C#N)c(Cl)c6)C5(C)C)cn4)CC3)c(F)c2)c(-c2cn(C)c(=O)c3[nH]ccc23)c1 [Compound I-285] | < 0.5 µM | < 0.5 µM | – | – | > 3 µM | < 0.5 µM
Cn1cc(-c2cc(C(C)(C)O)ccc2OC2CCC(N3CC(OC4CCN(c5ncc(C(=O)N[C@H]6C(C)(C)[C@H](Oc7ccc(C#N)c(Cl)c7)C6(C)C)cn5)CC4)C3)CC2)c2cc[nH]c2c1=O (stereo partly shown) [Compound I-288, N-[3-(3-chloro-4-cyano-phenoxy)-2,2,4,4-tetramethyl-cyclobutyl]-2-[4-[1-[4-[4-(1-hydroxy-1-methyl-ethyl)-2-(6-methyl-7-oxo-1H-pyrrolo[2,3-c]pyridin-4-yl)phenoxy]cyclohexyl]azetidin-3-yl]oxy-1-piperidyl]pyrimidine-5-carboxamide] | < 0.5 µM | < 0.5 µM | – | – | < 0.5 µM | < 0.5 µM
Cn1cc(-c2cc(C(C)(C)O)ccc2OC2CCC(N3CC(OC4CCN(c5ncc(C(=O)NC6C(C)(C)C(Oc7ccc(C#N)c(Cl)c7)C6(C)C)cn5)CC4)C3)CC2)c2cc[nH]c2c1=O (stereo not shown) [Compound I-289] | – | – | 0.5 to 1.5 µM | 1.5 to 3 µM | 1.5 to 3 µM | < 0.5 µM
Cn1cc(-c2cc(C(C)(C)O)ccc2O[C@H]2C[C@H](OCC3CCN(c4ncc(C(=O)N[C@H]5C(C)(C)[C@H](Oc6ccc(C#N)c(Cl)c6)C5(C)C)cn4)CC3)C2)c2cc[nH]c2c1=O [Compound I-290] | – | – | < 0.5 µM | 0.5 to 1.5 µM | < 0.5 µM | < 0.5 µM
CCS(=O)(=O)c1ccc(Oc2ccc(N3CC(C4CCN(c5ncc(C(=O)N[C@H]6C(C)(C)[C@H](Oc7ccc(C#N)c(Cl)c7)C6(C)C)cn5)CC4)C3)cc2)c(-c2cn(C)c(=O)c3[nH]ccc23)c1 [Compound I-291] | – | – | < 0.5 µM | < 0.5 µM | < 0.5 µM | < 0.5 µM
CCS(=O)(=O)c1ccc(-c2cn(C)c(=O)c3[nH]ccc23)c(-n2cc(CCC3CCN(c4ncc(C(=O)NC5C(C)(C)C(Oc6ccc(C#N)c(Cl)c6)C5(C)C)cn4)CC3)ncc2=O)c1 (stereo not shown) [Compound I-292, N-[3-(3-chloro-4-cyano-phenoxy)-2,2,4,4-tetramethyl-cyclobutyl]-2-[4-[2-[4-[5-ethylsulfonyl-2-(6-methyl-7-oxo-1H-pyrrolo[2,3-c]pyridin-4-yl)phenyl]-5-oxo-pyrazin-2-yl]ethyl]-1-piperidyl]pyrimidine-5-carboxamide] | < 0.5 µM | < 0.5 µM | – | – | < 0.5 µM | < 0.5 µM
CCS(=O)(=O)Cc1ccc(Oc2cccc(OC(C)(C)CCC3CCN(c4ncc(C(=O)N[C@H]5C(C)(C)[C@H](Oc6ccc(C#N)c(Cl)c6)C5(C)C)cn4)CC3)c2)c(-c2cn(C)c(=O)c3[nH]ccc23)c1 [Compound I-293] | – | – | < 0.5 µM | < 0.5 µM | > 3 µM | < 0.5 µM
CCS(=O)(=O)c1ccc(OC2CC(OC3CC4(CCN(c5ncc(C(=O)NC6C(C)(C)C(Oc7ccc(C#N)c(Cl)c7)C6(C)C)cn5)CC4)C3)C2)c(-c2cn(C)c(=O)c3[nH]ccc23)c1 (stereo not shown) [Compound I-295, N-[3-(3-chloro-4-cyano-phenoxy)-2,2,4,4-tetramethyl-cyclobutyl]-2-[2-[3-[4-ethylsulfonyl-2-(6-methyl-7-oxo-1Hpyrrolo[2,3-c]pyridin-4-yl)phenoxy]cyclobutoxy]-7-azaspiro[3.5]nonan-7-yl]pyrimidine-5-carboxamide] | < 0.5 µM | < 0.5 µM | – | – | < 0.5 µM | < 0.5 µM
Cn1cc(-c2cc(C(C)(C)O)ccc2OC2CC3CC2CC3OCC2CCN(c3ncc(C(=O)N[C@H]4C(C)(C)[C@H](Oc5ccc(C#N)c(Cl)c5)C4(C)C)cn3)CC2)c2cc[nH]c2c1=O (stereo partly shown) [Compound I-296] | – | – | < 0.5 µM | > 3 µM | > 3 µM | < 0.5 µM

The next lines start with results.

GI50 ([3]; Homo sapiens) | GI50 ([4]; Homo sapiens) | GI50 [3] | GI50 [4] | SMILES | GI50 [1] | GI50 [2]
– | – | < 0.5 µM | < 0.5 µM | CCS(=O)(=O)c1ccc(Oc2ccc(CCC3CCN(c4ncc(C(=O)N[C@H]5C(C)(C)[C@H](Oc6ccc(C#N)c(Cl)c6)C5(C)C)cn4)CC3)c(F)c2)c(-c2cn(C)c(=O)c3[nH]ccc23)c1 [Compound I-284] | > 3 µM | < 0.5 µM
– | – | < 0.5 µM | < 0.5 µM | Cn1cc(-c2cc(C(C)(C)O)ccc2Oc2ccc(CCC3C4CN(c5ncc(C(=O)N[C@H]6C(C)(C)[C@H](Oc7ccc(C#N)c(Cl)c7)C6(C)C)cn5)CC34)cc2)c2cc[nH]c2c1=O (stereo partly shown) [Compound I-286] | 0.5 to 1.5 µM | < 0.5 µM
0.5 to 1.5 µM | < 0.5 µM | – | – | Cn1cc(-c2cc(C(C)(C)O)ccc2Oc2ccc(CCC3CCN(c4ncc(C(=O)NC5C(C)(C)C(Oc6ccc(C#N)c(Cl)c6)C5(C)C)cn4)CC3)cn2)c2cc[nH]c2c1=O (stereo not shown) [Compound I-287, N-[3-(3-chloro-4-cyano-phenoxy)-2,2,4,4-tetramethyl-cyclobutyl]-2-[4-[2-[6-[4-(1-hydroxy-1-methyl-ethyl)-2-(6-methyl-7-oxo-1H-pyrrolo[2,3-c]pyridin-4-yl)phenoxy]-3-pyridyl]ethyl]-1-piperidyl]pyrimidine-5-carboxamide] | > 3 µM | < 0.5 µM
– | – | < 0.5 µM | < 0.5 µM | Cn1cc(-c2cc(C(C)(C)O)ccc2Oc2cccc(N3CC(CN4CCN(c5ncc(C(=O)N[C@H]6C(C)(C)[C@H](Oc7ccc(C#N)c(Cl)c7)C6(C)C)cn5)CC4(C)C)C3)c2F)c2cc[nH]c2c1=O [Compound I-294] | > 3 µM | < 0.5 µM
< 0.5 µM | < 0.5 µM | – | – | Cn1cc(-c2cc(C(C)(C)O)ccc2Oc2ccc(OC3CCN(c4ncc(C(=O)N[C@H]5C(C)(C)[C@H](Oc6ccc(C#N)c(Cl)c6)C5(C)C)cn4)CC3)nc2)c2cc[nH]c2c1=O [Compound I-297, N-[3-(3-chloro-4-cyano-phenoxy)-2,2,4,4-tetramethyl-cyclobutyl]-2-[4-[[5-[4-(1-hydroxy-1-methyl-ethyl)-2-(6-methyl-7-oxo-1H-pyrrolo[2,3-c]pyridin-4-yl)phenoxy]-2-pyridyl]oxy]-1-piperidyl]pyrimidine-5-carboxamide] | < 0.5 µM | < 0.5 µM
< 0.5 µM | < 0.5 µM | – | – | Cn1cc(-c2cc(C(C)(C)O)ccc2Oc2ccc(CC3CCN(c4ncc(C(=O)N[C@H]5C(C)(C)[C@H](Oc6ccc(C#N)c(Cl)c6)C5(C)C)cn4)CC3)nc2)c2cc[nH]c2c1=O [Compound I-298, N-[3-(3-chloro-4-cyano-phenoxy)-2,2,4,4-tetramethyl-cyclobutyl]-2-[4-[[5-[4-(1-hydroxy-1-methyl-ethyl)-2-(6-methyl-7-oxo-1H-pyrrolo[2,3-c]pyridin-4-yl)phenoxy]-2-pyridyl]methyl]-1-piperidyl]pyrimidine-5-carboxamide] | < 0.5 µM | < 0.5 µM
– | – | < 0.5 µM | < 0.5 µM | Cn1cc(-c2cc(C(C)(C)O)ccc2Oc2ccc(CN3CC4(C3)CN(c3ncc(C(=O)N[C@H]5C(C)(C)[C@H](Oc6ccc(C#N)c(Cl)c6)C5(C)C)cn3)CCO4)cc2)c2cc[nH]c2c1=O [Compound I-300] | < 0.5 µM | < 0.5 µM
– | – | 0.5 to 1.5 µM | < 0.5 µM | Cn1cc(-c2cc(C(C)(C)O)ccc2Oc2ccc(CCC3CCCN(c4ncc(C(=O)N[C@H]5C(C)(C)[C@H](Oc6ccc(C#N)c(Cl)c6)C5(C)C)cn4)C3)cc2)c2cc[nH]c2c1=O (stereo partly shown) [Compound I-301] | > 3 µM | < 0.5 µM
– | – | < 0.5 µM | 0.5 to 1.5 µM | Cn1cc(-c2cc(C(C)(C)O)ccc2Oc2ccc(CCC3CCN(c4ncc(C(=O)N[C@H]5C(C)(C)[C@H](Oc6ccc(C#N)c(Cl)c6)C5(C)C)cn4)CC3)nc2)c2cc[nH]c2c1=O [Compound I-302] | 0.5 to 1.5 µM | < 0.5 µM
< 0.5 µM | < 0.5 µM | – | – | Cn1cc(-c2cc(C(C)(C)O)ccc2Oc2ccc(CCC3CN(c4ncc(C(=O)N[C@H]5C(C)(C)[C@H](Oc6ccc(C#N)c(Cl)c6)C5(C)C)cn4)CCO3)cc2)c2cc[nH]c2c1=O (stereo partly shown) [Compound I-305] | > 3 µM | < 0.5 µM
– | – | 0.5 to 1.5 µM | > 3 µM | Cn1cc(-c2cc(C(C)(C)O)ccc2Oc2ccc(CCCC3CCCN(c4ncc(C(=O)N[C@H]5C(C)(C)[C@H](Oc6ccc(C#N)c(Cl)c6)C5(C)C)cn4)C3)cc2)c2cc[nH]c2c1=O (stereo partly shown) [Compound I-306] | > 3 µM | < 0.5 µM
